Results taken from article PMC4999056 (European Journal of Medicinal Chemistry, 2016).
Read-outs that look alike come from different tables or passages of the source.

Legend:
[1] = system: YFV; assay: microbe, parasite or virus in culture; type: cell-based, yellow fever virus; settings: for EC50: read-out: Yellow fever EC50
[2] = in vitro
[3] = in vitro; settings: chlorocebus aethiops
[4] = system: DENV (serotype 2); assay: microbe, parasite or virus in culture; type: cell-based, Dengue virus serotype 2; settings: for EC50: read-out: Dengue EC50
[5] = system: Vero-B cells (ECACC)
[6] = system: Vero-B cells (ATCCCCL-81)

For `Cc1ccc(NC(=O)c2ccccc2C(=O)Nc2ccc(F)cc2)c(-c2ccc(C)s2)c1` [7f, N^1-(4-fluorophenyl)-N^2-(4-methyl-2-(5-methylthiophen-2-yl)phenyl)phthalamide], the “Yellow fever SI” value [1] was greater than 17, the EC50 ([1]; Yellow fever virus, Vero B) was 6.8 µM and the CC50 ([2]; chlorocebus aethiops) was greater than 113 µM. For the same molecule, the CC50 ([3]; Yellow fever CC50) was greater than 113 µM, the “Dengue SI” value [4] was greater than 39 and the EC50 ([4]; Dengue virus, Vero B) was 2.9 µM.
For `Cc1ccc(NC(=O)c2ccccc2C(=O)Nc2ccc(C)cc2-c2ccsc2)cc1` [7g, N^1-(4-methyl-2-(thiophen-3-yl)phenyl)-N^2-(p-tolyl)phthalamide], the “Yellow fever SI” value [1] was greater than 60, the EC50 ([1]; Yellow fever virus, Vero B) was 1.9 µM and the CC50 at 168 h ([2]; chlorocebus aethiops) was 12.9 µM. The CC50 ([2]; green monkey) was greater than 116 µM, the CC50 ([3]; Yellow fever CC50) was greater than 117 µM and the EC50 ([4]; Dengue virus, Vero B) was 0.5 µM. It also gave an EC50 [4] of 0.7 µM.
With `Cc1ccc(NC(=O)c2ccccc2C(=O)Nc2ccc(F)cc2)c(-c2ccsc2)c1` [7h, N^1-(4-fluorophenyl)-N^2-(4-methyl-2-(thiophen-3-yl)phenyl)phthalamide] the “Yellow fever SI” value [1] was 10, the EC50 ([1]; Yellow fever virus, Vero B) was 6.5 µM and the CC50 at 168 h ([2]; chlorocebus aethiops) was 47 µM. For the same molecule, the CC50 at 168 h ([3]; Yellow fever CC50) was 67 µM, the “Dengue SI” value [4] was 16 and the EC50 ([4]; Dengue virus, Vero B) was 3 µM.
In the case of `Cc1ccc(NC(=O)c2ccccc2C(=O)NCc2ccccc2-c2ccsc2)cc1` [7j, N^1-(2-(thiophen-3-yl)benzyl)-N^2-(p-tolyl)phthalamide], the “Yellow fever SI” value [1] is reported as 23, the EC50 ([1]; Yellow fever virus, Vero B) is reported as 2.6 µM and the CC50 at 168 h ([2]; chlorocebus aethiops) is reported as 50 µM. For the same molecule, the CC50 at 168 h ([3]; Yellow fever CC50) was 61 µM, the “Dengue SI” value [4] was 17 and the EC50 ([4]; Dengue virus, Vero B) was 3 µM.
With `O=C(NCc1ccc(-c2ccsc2)cc1)c1ccccc1C(=O)Nc1ccc(F)cc1` [7k, N^1-(4-fluorophenyl)-N^2-(4-(thiophen-3-yl)benzyl)phthalamide] the “Yellow fever SI” value [1] was greater than 16, the EC50 ([1]; Yellow fever virus, Vero B) was 7.4 µM and the CC50 ([2]; chlorocebus aethiops) was greater than 116 µM. For the same molecule, the CC50 ([3]; Yellow fever CC50) was greater than 117 µM, the “Dengue SI” value [4] was greater than 7 and the EC50 ([4]; Dengue virus, Vero B) was 16 µM.
In the case of `Cc1ccc(NC(=O)c2ccccc2C(=O)NCc2ccc(-c3ccsc3)cc2)cc1` [7l, N^1-(4-(thiophen-3-yl)benzyl)-N^2-(p-tolyl)phthalamide], the “Yellow fever SI” value [1] is reported as greater than 35, the EC50 ([1]; Yellow fever virus, Vero B) is reported as 3.3 µM and the CC50 ([2]; chlorocebus aethiops) is reported as greater than 117 µM. For the same molecule, the CC50 ([3]; Yellow fever CC50) was greater than 117 µM, the “Dengue SI” value [4] was greater than 8 and the EC50 ([4]; Dengue virus, Vero B) was 13.8 µM.
In the case of `Cc1cc(-c2ccccc2NC(=O)c2ccccc2C(=O)Nc2ccc(F)cc2)[nH]n1` [7m, N^1-(4-fluorophenyl)-N^2-(2-(3-methyl-1H-pyrazol-5-yl)phenyl)phthalamide], the “Yellow fever SI” value [1] is reported as greater than 10, the EC50 ([1]; Yellow fever virus, Vero B) is reported as 12 µM and the CC50 ([2]; chlorocebus aethiops) is reported as greater than 120 µM. For the same molecule, the CC50 ([3]; Yellow fever CC50) was greater than 120 µM, the “Dengue SI” value [4] was 1 and the EC50 ([4]; Dengue virus, Vero B) was greater than 120 µM.
With `Cc1ccc(NC(=O)c2ccccc2C(=O)Nc2ccccc2-c2cc(C)n[nH]2)cc1` [7n, N^1-(2-(3-methyl-1H-pyrazol-5-yl)phenyl)-N^2-(p-tolyl)phthalamide] the “Yellow fever SI” value [1] was greater than 21, the EC50 ([1]; Yellow fever virus, Vero B) was 5.8 µM and the CC50 ([2]; chlorocebus aethiops) was greater than 122 µM. The CC50 ([3]; Yellow fever CC50) was greater than 122 µM, the “Dengue SI” value [4] was greater than 9 and the EC50 ([4]; Dengue virus, Vero B) was 14.1 µM.
Work on `Cc1ccc(NC(=O)c2ccccc2NC(=O)c2ccc(F)cc2)c(-c2ccsc2)c1` [13a, 2-(4-fluorobenzamido)-N-(4-methyl-2-(thiophen-3-yl)phenyl)benzamide] yielded an EC50 ([1]; Yellow fever virus, Vero B) greater than 116 µM, a CC50 ([2]; chlorocebus aethiops) greater than 116 µM and a CC50 ([3]; Yellow fever CC50) greater than 116 µM. For the same molecule, the EC50 ([4]; Dengue virus, Vero B) was greater than 116 µM.
With `Cc1ccc(NC(=O)c2ccccc2NC(=O)c2ccc(F)cc2)c(-c2ccc(C)s2)c1` [13b, 2-(4-fluorobenzamido)-N-(4-methyl-2-(5-methylthiophen-2-yl)phenyl)benzamide] the “Yellow fever SI” value [1] was 1, the EC50 ([1]; Yellow fever virus, Vero B) was greater than 113 µM and the CC50 ([2]; chlorocebus aethiops) was greater than 113 µM. For the same molecule, the CC50 ([3]; Yellow fever CC50) was greater than 113 µM, the CC50 ([3]; Yellow fever CC50 (visual)) was 12.5 µM and the “Dengue SI” value [4] was greater than 35. The EC50 ([4]; Dengue virus, Vero B) was 3.2 µM.
With `Cc1ccc(NC(=O)c2ccccc2NC(=O)c2ccc(F)cc2)c(-c2ccncc2)c1` [13c, 2-(4-fluorobenzamido)-N-(4-methyl-2-(pyridin-4-yl)phenyl)benzamide] the “Yellow fever SI” value [1] was 1, the EC50 ([1]; Yellow fever virus, Vero B) was greater than 117 µM and the CC50 ([2]; chlorocebus aethiops) was greater than 117 µM. For the same molecule, the CC50 ([3]; Yellow fever CC50) was greater than 50 µM, the CC50 ([3]; Yellow fever CC50 (visual)) was 30 µM and the “Dengue SI” value [4] was greater than 7. The EC50 ([4]; Dengue virus, Vero B) was 17 µM.
In the case of `Cc1ccc(NC(=O)c2ccccc2NC(=O)c2ccc(F)cc2)c(-c2cccnc2)c1` [13d, 2-(4-fluorobenzamido)-N-(4-methyl-2-(pyridin-3-yl)phenyl)benzamide], the “Yellow fever SI” value [1] is reported as 1, the EC50 ([1]; Yellow fever virus, Vero B) is reported as greater than 117 µM and the CC50 ([2]; chlorocebus aethiops) is reported as greater than 117 µM. For the same molecule, the CC50 ([3]; Yellow fever CC50) was greater than 50 µM, the CC50 ([3]; Yellow fever CC50 (visual)) was 39 µM and the “Dengue SI” value [4] was greater than 5. For the same molecule, the EC50 ([4]; Dengue virus, Vero B) was 23 µM.
For “N^1-(4-fluorophenyl)-N^2-(2-(thiophen-3-yl)benzyl)phthalamide [7i]”, the CC50 [5] was 50 µM, the “Yellow fever SI” value [1] was 53 and the EC50 [1] was 1.4 µM. The CC50 [6] was 75 µM, the “Dengue SI” value [4] was 17 and the EC50 [4] was 3 µM.
